From patent publication US8067454B2, “Thio-substituted Anthra [1, 2-d] imidazole- 6, 11-dione derivatives, preparation method and application thereof” (National Defense Medical Center, priority 2010, dated 2011)

Assays:
CCRF-CEM = experiment: NCI 60-cell drug screen, Leukemia CCRF-CEM; assay type: cell-based, human; conditions: 1.00E−5 Molar
SK-MEL-5 = experiment: NCI 60-cell drug screen, Melanoma SK-MEL-5; assay type: cell-based, human; conditions: 1.00E−5 Molar
TK-10 = experiment: NCI 60-cell drug screen, Renal Cancer TK-10; assay type: cell-based, human; conditions: 1.00E−5 Molar
MDA-MB-231/ATCC = experiment: NCI 60-cell drug screen, Breast Cancer MDA-MB-231/ATCC; assay type: cell-based, human; conditions: 1.00E−5 Molar
MALME-3M = experiment: NCI 60-cell drug screen, Melanoma MALME-3M; assay type: cell-based, human; conditions: 1.00E−5 Molar
COLO 205 = experiment: NCI 60-cell drug screen, Colon Cancer COLO 205; assay type: cell-based, human; conditions: 1.00E−5 Molar
UACC-62 = experiment: NCI 60-cell drug screen, Melanoma UACC-62; assay type: cell-based, human; conditions: 1.00E−5 Molar
HCT-116 = experiment: NCI 60-cell drug screen, Colon Cancer HCT-116; assay type: cell-based, human; conditions: 1.00E−5 Molar
HCC-2998 = experiment: NCI 60-cell drug screen, Colon Cancer HCC-2998; assay type: cell-based, human; conditions: 1.00E−5 Molar
LOX IMVI = experiment: NCI 60-cell drug screen, Melanoma LOX IMVI; assay type: cell-based, human; conditions: 1.00E−5 Molar
SW-620 = experiment: NCI 60-cell drug screen, Colon Cancer SW-620; assay type: cell-based, human; conditions: 1.00E−5 Molar
SVG p12 = experiment: MTT assay, SVG p12 normal cell; conditions: concentration 10 μM, normal cell
HL-60(TB) = experiment: NCI 60-cell drug screen, Leukemia HL-60(TB); assay type: cell-based, human; conditions: 1.00E−5 Molar
UO-31 = experiment: NCI 60-cell drug screen, Renal Cancer UO-31; assay type: cell-based, human; conditions: 1.00E−5 Molar
SN12C = experiment: NCI 60-cell drug screen, Renal Cancer SN12C; assay type: cell-based, human; conditions: 1.00E−5 Molar
SK-MEL-2 = experiment: NCI 60-cell drug screen, Melanoma SK-MEL-2; assay type: cell-based, human; conditions: 1.00E−5 Molar
NCI-H322M = experiment: NCI 60-cell drug screen, Non-Small Cell Lung Cancer NCI-H322M; assay type: cell-based, human; conditions: 1.00E−5 Molar
NCI-H23 = experiment: NCI 60-cell drug screen, Non-Small Cell Lung Cancer NCI-H23; assay type: cell-based, human; conditions: 1.00E−5 Molar
KM12 = experiment: NCI 60-cell drug screen, Colon Cancer KM12; assay type: cell-based, human; conditions: 1.00E−5 Molar
SNB-19 = experiment: NCI 60-cell drug screen, CNS Cancer SNB-19; assay type: cell-based, human; conditions: 1.00E−5 Molar
RXF 393 = experiment: NCI 60-cell drug screen, Renal Cancer RXF 393; assay type: cell-based, human; conditions: 1.00E−5 Molar
HCT-15 = experiment: NCI 60-cell drug screen, Colon Cancer HCT-15; assay type: cell-based, human; conditions: 1.00E−5 Molar
OVCAR-8 = experiment: NCI 60-cell drug screen, Ovarian Cancer OVCAR-8; assay type: cell-based, human; conditions: 1.00E−5 Molar
M14 = experiment: NCI 60-cell drug screen, Melanoma M14; assay type: cell-based, human; conditions: 1.00E−5 Molar
786-0 = experiment: NCI 60-cell drug screen, Renal Cancer 786-0; assay type: cell-based, human; conditions: 1.00E−5 Molar
SK-MEL-28 = experiment: NCI 60-cell drug screen, Melanoma SK-MEL-28; assay type: cell-based, human; conditions: 1.00E−5 Molar
NCI/ADR-RES = experiment: NCI 60-cell drug screen, Ovarian Cancer NCI/ADR-RES; assay type: cell-based, human; conditions: 1.00E−5 Molar
Description: In brief, cellular protein levels were determined after 48 hours of drug exposure by sulforhodamine B colorimetry. Through the use of a time 0 cell control, the cell growth can be determined for each cell line thus allowing calculations of the 50% growth inhibitory concentration (GI50), the total growth inhibition (TGI), and the 50% lethal concentration (LC50). Comparison to plates not exposed to drug permits determination of concentration and times of exposure conferring 50% net growth inhibition (GI50), TGI, and 50% cell kill (LC50).
From the data analysis it follows that approximately 95% of the actives (potent anticancer drugs) from the 60 cell line screen can be identified. By these criteria, 6 compounds (each with its certification number, refer to Table 2) of the invention were reported that having anticancer activity.
The screening system in United State National Cancer Institute (NCI) consists of 60 kinds of different human cancer cells, which can be used to assay the growth-inhibiting ability or cell toxicity of a compound against various cancer and tumor at a certain concentration.
NCI had selected 6 compounds f1-0, f1-1, f3-1, f1-11, f1-2 and f1-15 as test compounds (Table 2). Among these compounds, compound f1-1 was effective against renal cancer cell strain CAKI-1, and could achieve an inhibition effect on the growth of said cancer cell up to −8.01. Compound f1-11 could achieve inhibiting effects against leukemia cell line CCRF-CEM and RPMI-8226, up to −15.39 and −60.17, respectively. Compound f1-2 was effective against central nervous system cancer cell line SNB-75, and could achieve an effect of inhibiting said cancer cell growth up to −9.55. Compound f1-15 was effective against leukemia (blood cancer) cell line K-562, MOLT-4, and RPMI-8226, and could achieve effects of inhibiting said cancer cells growth up to −31.59, −2.90 and −13.69, respectively. Further, compound f1-15 was effective also against renal cancer cell line CAKI-1, and could achieve an effect of inhibiting said cancer cell growth up to −14.89.

NCI-H522 = experiment: NCI 60-cell drug screen, Non-Small Cell Lung Cancer NCI-H522; assay type: cell-based, human; conditions: 1.00E−5 Molar
SR = experiment: NCI 60-cell drug screen, Leukemia SR; assay type: cell-based, human; conditions: 1.00E−5 Molar
NCI-H226 = experiment: NCI 60-cell drug screen, Non-Small Cell Lung Cancer NCI-H226; assay type: cell-based, human; conditions: 1.00E−5 Molar
T-47D = experiment: NCI 60-cell drug screen, Breast Cancer T-47D; assay type: cell-based, human; conditions: 1.00E−5 Molar
U251 = experiment: NCI 60-cell drug screen, CNS Cancer U251; assay type: cell-based, human; conditions: 1.00E−5 Molar
PC-3 = experiment: NCI 60-cell drug screen, Prostate Cancer PC-3; assay type: cell-based, human; conditions: 1.00E−5 Molar
UACC-257 = experiment: NCI 60-cell drug screen, Melanoma UACC-257; assay type: cell-based, human; conditions: 1.00E−5 Molar
OVCAR-4 = experiment: NCI 60-cell drug screen, Ovarian Cancer OVCAR-4; assay type: cell-based, human; conditions: 1.00E−5 Molar
K-562 = experiment: NCI 60-cell drug screen, Leukemia K-562; assay type: cell-based, human; conditions: 1.00E−5 Molar
NCI-H460 = experiment: NCI 60-cell drug screen, Non-Small Cell Lung Cancer NCI-H460; assay type: cell-based, human; conditions: 1.00E−5 Molar
MCF7 = experiment: NCI 60-cell drug screen, Breast Cancer MCF7; assay type: cell-based, human; conditions: 1.00E−5 Molar
A498 = experiment: NCI 60-cell drug screen, Renal Cancer A498; assay type: cell-based, human; conditions: 1.00E−5 Molar
IGROV1 = experiment: NCI 60-cell drug screen, Ovarian Cancer IGROV1; assay type: cell-based, human; conditions: 1.00E−5 Molar

SMILES	Growth Percent, CCRF-CEM (CCRF-CEM)	Growth Percent, SK-MEL-5 (SK-MEL-5)	Growth Percent, TK-10 (TK-10)	Growth Percent, MDA-MB-231/ATCC (MDA-MB-231/ATCC)	Growth Percent, MALME-3M (MALME-3M)	Growth Percent, COLO 205 (COLO 205)	Growth Percent, UACC-62 (UACC-62)	Growth Percent, HCT-116 (HCT-116)	Growth Percent, HCC-2998 (HCC-2998)	Growth Percent, LOX IMVI (LOX IMVI)	Growth Percent, SW-620 (SW-620)	Cell survival rate (%) SVG p12 (SVG p12)	Growth Percent, HL-60(TB) (HL-60(TB))	Growth Percent, UO-31 (UO-31)	Growth Percent, SN12C (SN12C)	Growth Percent, SK-MEL-2 (SK-MEL-2)	Growth Percent, NCI-H322M (NCI-H322M)	Growth Percent, NCI-H23 (NCI-H23)	Growth Percent, KM12 (KM12)	Growth Percent, SNB-19 (SNB-19)	also measured
O=C1c2ccccc2C(=O)c2c1ccc1nc(S)[nH]c21 [f1-0, 2-Mercapto-1(3)H-anthra[1,2-d]imidazole-6,11-dione]	61.91%	86.66%	111.74%	108.18%	87.50%	103.96%	84.17%	96.31%	113.65%	84.00%	97.56%	82 ± 5%	97.58%	97.83%	87.98%	134.35%	96.31%	113.34%	101.59%	91.30%	Growth Percent, RXF 393 (RXF 393): 141.66%; Growth Percent, HCT-15 (HCT-15): 83.78%; Growth Percent, OVCAR-8 (OVCAR-8): 139.75%; Growth Percent, M14 (M14): 101.06%; Growth Percent, 786-0 (786-0): 95.78%; Growth Percent, SK-MEL-28 (SK-MEL-28): 118.39%; Growth Percent, NCI/ADR-RES (NCI/ADR-RES): 109.60%; Growth Percent, NCI-H522 (NCI-H522): 96.06%; Growth Percent, SR (SR): 124.87%; Growth Percent, NCI-H226 (NCI-H226): 83.74%; Growth Percent, T-47D (T-47D): 81.86%; Growth Percent, U251 (U251): 88.79%; Growth Percent, PC-3 (PC-3): 78.80%; Growth Percent, UACC-257 (UACC-257): 105.26%; Growth Percent, OVCAR-4 (OVCAR-4): 91.57%; Growth Percent, K-562 (K-562): 108.55%; Growth Percent, NCI-H460 (NCI-H460): 98.61%; Growth Percent, MCF7 (MCF7): 75.91%; Growth Percent, A498 (A498): 94.31%; Growth Percent, IGROV1 (IGROV1): 138.25%
CCSc1nc2ccc3c(c2[nH]1)C(=O)c1ccccc1C3=O [f1-1, 2-(Ethylthio)-1H-anthra[1,2-d]imidazole-6,11-dione]	36.87%	63.93%	74.09%	84.79%	63.33%	71.84%	47.64%	68.78%	89.42%	36.72%	84.53%	98 ± 8%	62.64%	49.19%	67.91%	81.65%	33.44%	87.41%	68.26%	87.90%	Growth Percent, RXF 393 (RXF 393): 99.91%; Growth Percent, HCT-15 (HCT-15): 32.29%; Growth Percent, OVCAR-8 (OVCAR-8): 96.82%; Growth Percent, M14 (M14): 67.07%; Growth Percent, 786-0 (786-0): 85.38%; Growth Percent, SK-MEL-28 (SK-MEL-28): 97.72%; Growth Percent, NCI/ADR-RES (NCI/ADR-RES): 85.72%; Growth Percent, NCI-H522 (NCI-H522): 78.60%; Growth Percent, SR (SR): 129.31%; Growth Percent, NCI-H226 (NCI-H226): 62.07%; Growth Percent, T-47D (T-47D): 30.78%; Growth Percent, U251 (U251): 65.03%; Growth Percent, PC-3 (PC-3): 53.79%; Growth Percent, UACC-257 (UACC-257): 111.80%; Growth Percent, OVCAR-4 (OVCAR-4): 55.05%; Growth Percent, K-562 (K-562): 86.29%; Growth Percent, NCI-H460 (NCI-H460): 38.83%; Growth Percent, MCF7 (MCF7): 43.81%; Growth Percent, A498 (A498): 75.49%; Growth Percent, IGROV1 (IGROV1): 73.41%
